Source: article PMC7165421 (Proceedings of the National Academy of Sciences of the …, 2020)
Blank lines part the entries; values can stand above or below the molecule they belong to.

Key:
ARE dsDNA = experiment: DNA binding by fluorescence polarization, minimal ARE dsDNA; conditions: ΔNTD AR, specificity control
ΔNTD AR = experiment: Peptide binding by fluorescence polarization; design: species or system mouse
[1] = test system: AR binding from chromatin; conditions: ChIP assays; cited from earlier work
ARE/Scr dsDNA = experiment: DNA binding by fluorescence polarization, ARE/Scr dsDNA; conditions: ΔNTD AR expressed and purified in presence of enzalutamide (20 μM) vs DHT
AR LBD = conditions: cited from earlier work
[2] = test system: ARE containing double-stranded DNA (dsDNA) templates; experiment: DNA binding by fluorescence polarization, all ARE dsDNAs tested; conditions: FL AR relative to ΔNTD AR, DHT-bound

stimulation of AR DNA binding (ARE dsDNA): failed to stimulate AR
Molecule: bovine serum albumin (BSA): specificity control

Molecule: QIQLWHFILELLRKEEY [ERF AIM]
affinity compared to the ERG AIM (ΔNTD AR; ΔNTD AR): slightly less than the ERG AIM

reduction of AR DNA binding relative to DHT (ARE/Scr dsDNA): twofold
Molecule: CNC(=O)c1ccc(N2C(=S)N(c3ccc(C#N)c(C(F)(F)F)c3)C(=O)C2(C)C)cc1F [ENZ, enzalutamide]
displacement of AR from chromatin [1]: displaces AR binding from chromatin in cells

binding to ΔNTD AR with full-length ERG present (ΔNTD AR; equimolar full-length ERG, fluorescein-labeled AF1 peptide): further decrease in AF1 binding
Molecule: KTYRGAFQNLFQSVREA [AF1]
affinity for ΔNTD AR compared to ERG AIM peptide (ΔNTD AR; presence and absence of DNA, fluorescein-labeled AF1 peptide): more than an order of magnitude reduced affinity | affinity of AF1 for AR LBD (AR LBD): micromolar

impairment of DNA binding by presence of NTD [2]: greater than 10 fold
B1: FL AR: recombinant AR with the N terminus intact (protein)
chain: MEVQLGLGRVYPRPPSKTYRGAFQNLFQSVREAIQNPGPRHPEAANIAPPGACLQQRQETSPRRRRRQQHTEDGSPQAHIRGPTGYLALEEEQQPSQQQAASEGHPESSCLPEPGAATAPGKGLPQQPPAPPDQDDSAAPSTLSLLGPTFPGLSSCSADIKDILNEAGTMQLLQQQQQQQQHQQQHQQHQQQQEVISEGSSARAREATGAPSSSKDSYLGGNSTISDSAKELCKAVSVSMGLGVEALEHLSPGEQLRGDCMYASLLGGPPAVRPTPCAPLPECKGLPLDEGPGKSTEETAEYSSFKGGYAKGLEGESLGCSGSSEAGSSGTLEIPSSLSLYKSGALDEAAAYQNRDYYNFPLALSGPPHPPPPTHPHARIKLENPLDYGSAWAAAAAQCRYGDLGSLHGGSVAGPSTGSPPATTSSSWHTLFTAEEGQLYGPGGGGGSSSPSDAGPVAPYGYTRPPQGLTSQESDYSASEVWYPGGVVNRVPYPSPNCVKSEMGPWMENYSGPYGDMRLDSTRDHVLPIDYYFPPQKTCLICGDEASGCHYGALTCGSCKVFFKRAAEGKQKYLCASRNDCTIDKFRRKNCPSCRLRKCYEAGMTLGARKLKKLGNLKLQEEGENSNAGSPTEDPSQKMTVSHIEGYECQPIFLNVLEAIEPGVVCAGHDNNQPDSFAALLSSLNELGERQLVHVVKWAKALPGFRNLHVDDQMAVIQYSWMGLMVFAMGWRSFTNVNSRMLYFAPDLVFNEYRMHKSRMYSQCVRMRHLSQEFGWLQITPQEFLCMKALLLFSIIPVDGLKNQKFFDELRMNYIKELDRIIACKRKNPTSCSRRFYQLTKLLDSVQPIARELHQFTFDLLIKSHMVSVDFPEMMAEIISVQVPKILSGKVKPIYFHTQ
